Where two headings read alike, the source gives them in different places.
How the values were obtained:
[1] = biological target: Human recombinant cyclophilin A (Cyp A) (Homo sapiens, UniProt P62937); experiment: Protease-free PPIase assay; details: read-out: Protease-free PPIase Assay Ki;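 further: cis to trans isomerization of SUC-AAPF-pNA by 2 nM enzyme, read as absorbance at 330 nm over 300 s at 10 °C, catalytic rate corrected for uncatalyzed background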
Calcineurin = Calcineurin (Homo sapiens, UniProt P62937+P63098+Q08209); experiment: Calcineurin Phosphatase (CaN) Assay with Cyp A (+CypA); details: read-out: Calcineurin Phosphatase (CaN) Assay (+CypA) IC50, in the presence of Cyp A
[2] = Cyclophilin A (Cyp A) inhibitory activity

Chain of Human recombinant cyclophilin A (Cyp A) (P62937 whole entry): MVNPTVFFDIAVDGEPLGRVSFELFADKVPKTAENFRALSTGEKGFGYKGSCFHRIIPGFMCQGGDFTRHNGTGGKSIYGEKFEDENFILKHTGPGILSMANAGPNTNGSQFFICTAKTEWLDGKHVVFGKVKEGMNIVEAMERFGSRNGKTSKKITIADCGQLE
Chain of Calcineurin (P63098 whole entry, other chains not shown): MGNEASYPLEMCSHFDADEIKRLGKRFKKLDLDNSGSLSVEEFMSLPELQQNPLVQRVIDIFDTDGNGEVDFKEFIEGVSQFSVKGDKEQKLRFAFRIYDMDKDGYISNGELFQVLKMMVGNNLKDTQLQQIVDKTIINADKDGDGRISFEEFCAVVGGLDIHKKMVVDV
Chain of Calcineurin (P62937 whole entry, other chains not shown): as the sequence (P62937 whole entry) above

Compound | Ki [1, 2] [nM] | IC50 (Calcineurin) [nM] | IC50 (Calcineurin; 1:1 complex with inhibitor) [nM] | Ki ([1]; cyclophilin A, 10 °C) [nM]
CCC1NC(=O)C(C(O)C(C)CCN2CCn3cc(C(F)(F)F)nc3C2)N(C)C(=O)C(C(C)C)N(C)C(=O)C(CC(C)C)N(C)C(=O)C(CC(C)C)N(C)C(=O)C(C)NC(=O)C(C)NC(=O)C(CC(C)C)N(C)C(=O)C(C(C)C)NC(=O)C(CC(C)C)N(C)C(=O)C(C)N(C)C1=O [Compound EE, [(3R,4R,5S)-4-Hydroxy-3-methyl-5-(methylamino)-1-(2-trifluoromethyl-5,6-dihydro-8H-imidazo[1,2-a]pyrazin-7-yl)-hexanoic acid]^1[(R)-methyl-Sar]^3 cyclosporin A] | 9.1 | > 10000 |  | 
CC[C@H]1NC(=O)[C@@H]([C@H](O)[C@H](C)CCN2CCOCC2)N(C)C(=O)[C@@H](C(C)C)N(C)C(=O)[C@@H](CC(C)C)N(C)C(=O)[C@@H](CC(C)C)N(C)C(=O)[C@H](C)NC(=O)[C@@H](C)NC(=O)[C@@H](CC(C)C)N(C)C(=O)[C@@H](C(C)C)NC(=O)[C@H](CC(C)C)N(C)C(=O)[C@@H](SC)N(C)C1=O [Compound K, [(3R,4R,5S)-4-hydroxy-3-methyl-5-(methylamino)-1-N-morpholino-hexanoic acid]^1[(S)-thiomethyl-Sar]^3 cyclosporin A] |  |  | > 10000 | 
CCC1NC(=O)C(C(O)C(C)CCN2CCCCC2C(F)(F)F)N(C)C(=O)C(C(C)C)N(C)C(=O)C(CC(C)C)N(C)C(=O)C(CC(C)C)N(C)C(=O)C(C)NC(=O)C(C)NC(=O)C(CC(C)C)N(C)C(=O)C(C(C)C)NC(=O)C(CC(C)C)N(C)C(=O)C(C)N(C)C1=O (mixture of isomers) [Compound EB, [(3R,4R,5S)-4-Hydroxy-3-methyl-5-(methylamino)-1-(2-trifluoromethyl-piperidin-1-yl)-hexanoic acid]^1[(R)-methyl-Sar]^3 cyclosporin A] | 3.7 | > 10000 |  | 
CCC1NC(=O)C(C(O)C(C)CCN2CCOCC2C(F)(F)F)N(C)C(=O)C(C(C)C)N(C)C(=O)C(CC(C)C)N(C)C(=O)C(CC(C)C)N(C)C(=O)C(C)NC(=O)C(C)NC(=O)C(CC(C)C)N(C)C(=O)C(C(C)C)NC(=O)C(CC(C)C)N(C)C(=O)C(C)N(C)C1=O (mixture of isomers) [Compound EC, [(3R,4R,5S)-4-Hydroxy-3-methyl-5-(methylamino)-1-(3-trifluoromethyl-morpholin-4-yl)-hexanoic acid]^1[(R)-methyl-Sar]^3 cyclosporin A] | 5.2 | > 10000 |  | 
CCC1NC(=O)C(C(O)C(C)CCN2CCCCO2)N(C)C(=O)C(C(C)C)N(C)C(=O)C(CC(C)C)N(C)C(=O)C(CC(C)C)N(C)C(=O)C(C)NC(=O)C(C)NC(=O)C(CC(C)C)N(C)C(=O)C(C(C)C)NC(=O)C(CC(C)C)N(C)C(=O)C(C)N(C)C1=O [Compound ED, [(3R,4R,5S)-4-Hydroxy-3-methyl-5-(methylamino)-1-([1,2]oxazinan-2-yl)-hexanoic acid]^1[(R)-methyl-Sar]^3 cyclosporin A] | 3.8 | > 10000 |  | 
CC[C@H]1NC(=O)[C@@H]([C@H](O)[C@H](C)CCCC(=O)N(CC)CC)N(C)C(=O)[C@@H](C(C)C)N(C)C(=O)[C@@H](CC(C)C)N(C)C(=O)[C@@H](CC(C)C)N(C)C(=O)[C@H](C)NC(=O)[C@@H](C)NC(=O)[C@@H](CC(C)C)N(C)C(=O)[C@@H](C(C)C)NC(=O)[C@H](CC(C)C)N(C)C(=O)[C@@H](C)N(C)C1=O [Compound U, [(5R,6R,7S)-6-hydroxy-5-methyl-7-(methylamino)-1-diethylamino-1-oxo-octanoic acid]^1[(R)-methyl-Sar]^3 cyclosporin A] |  |  | > 10000 | 4
CCC1NC(=O)C(C(O)C(C)CCN2CCCOCC2)N(C)C(=O)C(C(C)C)N(C)C(=O)C(CC(C)C)N(C)C(=O)C(CC(C)C)N(C)C(=O)C(C)NC(=O)C(C)NC(=O)C(CC(C)C)N(C)C(=O)C(C(C)C)NC(=O)C(CC(C)C)N(C)C(=O)C(COCCN(CC)CC)N(C)C1=O [Compound AD, [(3R,4R,5S)-4-Hydroxy-3-methyl-5-(methylamino)-1-N-homomorpholino-hexanoic acid]^1[(R)-2-diethylaminoethyloxymethyl-Sar]^3 cyclosporin A] |  |  | > 10000 | 18

— patent US20160039880A1 (priority 2012, published 2016)
